Target: T1, androgen receptor (adenovirus AdEasy+rAR in L929 cells) (Rattus norvegicus, UniProt P15207)
T1 construct: expressed in transfected cells
T1 sequence (P15207 1-902): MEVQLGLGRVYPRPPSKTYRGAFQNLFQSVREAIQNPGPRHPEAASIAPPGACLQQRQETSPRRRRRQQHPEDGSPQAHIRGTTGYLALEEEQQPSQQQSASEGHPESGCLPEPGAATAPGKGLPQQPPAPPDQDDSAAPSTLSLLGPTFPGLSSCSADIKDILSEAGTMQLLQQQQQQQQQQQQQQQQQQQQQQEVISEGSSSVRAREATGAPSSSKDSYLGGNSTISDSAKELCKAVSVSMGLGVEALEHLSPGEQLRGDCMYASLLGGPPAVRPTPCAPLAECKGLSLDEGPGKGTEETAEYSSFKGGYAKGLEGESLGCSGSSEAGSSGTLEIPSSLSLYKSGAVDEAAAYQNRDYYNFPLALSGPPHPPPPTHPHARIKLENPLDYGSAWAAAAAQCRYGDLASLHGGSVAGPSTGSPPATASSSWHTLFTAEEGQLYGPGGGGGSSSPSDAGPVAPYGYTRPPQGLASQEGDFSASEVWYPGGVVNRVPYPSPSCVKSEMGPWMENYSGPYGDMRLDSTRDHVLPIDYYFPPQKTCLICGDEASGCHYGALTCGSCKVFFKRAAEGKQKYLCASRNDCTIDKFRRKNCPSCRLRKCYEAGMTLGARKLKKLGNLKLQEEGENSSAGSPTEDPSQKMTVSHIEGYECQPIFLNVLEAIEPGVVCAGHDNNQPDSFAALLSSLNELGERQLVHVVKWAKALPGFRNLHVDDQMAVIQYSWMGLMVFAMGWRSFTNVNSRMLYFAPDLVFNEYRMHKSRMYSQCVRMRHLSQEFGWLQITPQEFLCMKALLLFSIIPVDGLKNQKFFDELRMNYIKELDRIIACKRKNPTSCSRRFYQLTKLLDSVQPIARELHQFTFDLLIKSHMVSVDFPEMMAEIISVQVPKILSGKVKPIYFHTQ
Assay: L929 Androgen Receptor Functional Assay, Adenovirus Transduction
Type: cell-based
Settings: L929 agonist testing; 3000 nM
Protocol: L929 cells were plated in 96-well plates at 20,000 cells per well, in DMEM/F12 (GIBCO) containing 10% (v/v) charcoal-treated fetal bovine serum (Hyclone) and lacking phenol red. The plates were then incubated overnight at 37° C. in 5% (v/v) humidified CO2.
Test compound dilutions were prepared in 100% (v/v) DMSO, if necessary. Each dilution was made to 1250× the final desired assay concentration.
First, 2 mL of DMEM/F12 lacking phenol red was pipetted into the wells of a 2-mL 96-well assay block. Next, 4 μL of the 1250× test compound dilutions were pipetted into each well of the assay block. The mixtures within the well were then carefully mixed by pipette.
In a 15 mL or 50 mL sterile centrifuge tube, a 2.5 nM (2.5×) dilution of R1881 (methyl-trienolone) in DMEM/F12 lacking phenol red was prepared.
In a second 15 mL or 50 mL centrifuge tube a solution containing an equal volume of DMEM to the first and an equal volume of 100% (v/v) DMSO to the volume of R1881 used in the first tube was prepared.
In a 15 mL or 50 mL sterile centrifuge tube, a dilution in DMEM/F12 of the adenovirus AdEasy+rAR at an moi of 1:500 per well was prepared.
The medium was removed from the 96-well plates by inversion and dried, inverted, very briefly. As soon as possible after medium removal, 40 μL of the diluted unlabeled test compound was added to each well, in duplicate. To each well designated for antagonist testing was added 40 μL of the 2.5 nM R1881 dilution to the wells for antagonist testing. To each well designated for agonist testing was added 40 μL of the DMSO dilution. Then 20 μL of the diluted adenovirus were added to all wells. The plates were incubated for 48 hours at 37° C. in 5% (v/v) humidified CO2.
To each well was added 100 μL of Steady-Glo luciferase assay substrate (Promega) and the plates were placed on a rotary shaker for 1 min. The plates were then incubated at room temperature in the dark for one hour. The contents of each well were then transferred to a white microtiter plate (Packard) and read on a Luminoskan Ascent (Thermo Lab Systems).
L929 AR percent activity was determined by testing dilutions of the test compound using a concentration of 3000 nM unless otherwise noted. L929 percent inhibition was determined by testing dilutions of the test compound using a concentration of 3000 nM. […] Luciferase activity per well were measured and EC50s and IC50s determined by linear regression.

| SMILES | % Activity [%] |
| --- | --- |
| CC[S+]([O-])CC(O)c1cc2cc([N+](=O)[O-])c(C(F)(F)F)cc2[nH]1 (mixture of isomers) [compound 180] | 2 |
| CC(O)(CSc1ccc(N)cc1)c1cc2cc(Cl)c(C(F)(F)F)cc2n1S(C)(=O)=O (racemic) [compound 125] | −5 |
| CC(O)(CSCC(F)(F)F)c1cc2cc(C#N)c(C(F)(F)F)cc2[nH]1 (racemic) [compound 211] | −1 |

Same assay, conditions: L929 agonist testing; 3000 nM; 3 µM

| SMILES | % Activity [%] |
| --- | --- |
| CSCC(C)(O)c1cc2cc([N+](=O)[O-])c(C(F)(F)F)cc2[nH]1 (single isomer, unassigned) [compound 144] | 0 |

Tested on: testosterone-enhanced ventral prostate and seminal vesicle weights in castrated male Sprague Dawley rats
Assay: Ventral Prostate and Seminal Vesicle Weight In Vivo Assay
Parameters: species or system rat
Settings: immature castrated rats; once daily for five days, usually orally at 40 mg/kg, with testosterone propionate 2 mg/kg s.c.
Protocol: Immature (approximately 50 g) castrated male Sprague Dawley rats (Charles River) were treated once daily for five days with test compound (usually given orally at 40 mg/kg in a volume of 0.3 mL, in 30% cyclodextrin or 0.5% methylcellulose vehicle) and with testosterone propionate (given subcutaneously by injection at the nape of the neck at 2 mg/kg, in a volume of 0.1 mL in sesame oil). On the sixth day, the rats were euthanized by asphyxiation in carbon dioxide. Ventral prostates and seminal vesicles were removed and their wet weights determined.
A test compound was said to be “active” if the non weight adjusted prostate weight was ≦40 mg or the % Inhibition prostate weight, body weight adjusted was ≧40% @2 mg/day dosage.

| SMILES | active / inactive (inhibition of testosterone-enhanced prostate weight) |
| --- | --- |
| CC[S+]([O-])CC(O)c1cc2cc([N+](=O)[O-])c(C(F)(F)F)cc2[nH]1 (mixture of isomers) [compound 180] | inactive |
| CC(O)(COc1cccc([N+](=O)[O-])c1)c1cc2cc(C#N)c(C(F)(F)F)cc2[nH]1 (stereo not shown) [Compound #428, 2-[1-Hydroxy-1-methyl-2-(3-nitro-phenoxy)-ethyl]-6-trifluoromethyl-1H-indole-5-carbonitrile] | inactive |
| CC(O)(COc1ccc(C#N)c(C(F)(F)F)c1)c1cc2cc(C#N)c(C(F)(F)F)cc2[nH]1 (stereo not shown) [Compound #429, 2-[2-(4-Cyano-3-trifluoromethyl-phenoxy)-1-hydroxy-1-methyl-ethyl]-6-trifluoromethyl-1H-indole-5-carbonitrile] | inactive |
| CCSCC(C)(O)Cc1cc2cc([N+](=O)[O-])c(C(F)(F)F)cc2[nH]1 (stereo not shown) [compound 10] | inactive |
| CCSCC(C)(CO)c1cc2cc([N+](=O)[O-])c(C(F)(F)F)cc2[nH]1 (stereo not shown) [compound 11] | inactive |
| CCSCC(O)(CSCC)c1cc2cc([N+](=O)[O-])c(C(F)(F)F)cc2[nH]1 [compound 13] | inactive |
| O=[N+]([O-])c1cc2cc(C3(O)CCSC3)[nH]c2cc1C(F)(F)F (stereo not shown) [compound 18] | inactive |
| CC(O)(CS(=O)(=O)c1ccc(F)cc1)c1cc2cc(Cl)c(C(F)(F)F)cc2[nH]1 (stereo not shown) [compound 85] | inactive |
| CC(O)(C[S+]([O-])c1ccc(F)cc1)c1cc2cc(Cl)c(C(F)(F)F)cc2[nH]1 (stereo not shown) [compound 113] | inactive |
| CSCC(C)(O)c1cc2cc(Cl)c(C(F)(F)F)cc2n1S(C)(=O)=O (stereo not shown) [compound 134] | inactive |
| CCSCC(C)(O)c1cc2cc(N)c(C(F)(F)F)cc2[nH]1 (stereo not shown) [compound 166] | inactive |
| CCSCC(C)(OC)c1cc2cc([N+](=O)[O-])c(C(F)(F)F)cc2[nH]1 (stereo not shown) [compound 167] | active |
| CCS(=O)(=O)CC(C)(O)c1cc2cc([N+](=O)[O-])c(C(F)(F)F)cc2[nH]1 (stereo not shown) [compound 175] | active |
| CC(C)(O[Si](C)(C)C)c1cc2cc([N+](=O)[O-])c(C(F)(F)F)cc2n1S(C)(=O)=O [compound 269] | inactive |
| CC(C)(O[Si](C)(C)C)c1cc2cc(Cl)c(C(F)(F)F)cc2n1S(C)(=O)=O [compound 270] | inactive |
| CC(C)(O)c1cc2cc([N+](=O)[O-])c(C(F)(F)F)cc2n1S(C)(=O)=O [compound 273] | inactive |
| CC(C)(O)c1cc2cc([N+](=O)[O-])c(C(F)(F)F)cc2[nH]1 [compound 274] | inactive |
| CC(C)(O)c1[nH]c2cc(C(F)(F)F)c([N+](=O)[O-])cc2c1Cl [compound 275] | active |

| SMILES | active / inactive (inhibition of testosterone-enhanced prostate weight) |
| --- | --- |
| CC(C)(O)c1[nH]c2cc(C(F)(F)F)c([N+](=O)[O-])cc2c1I [compound 276] | active |
| CC(C)(O)c1[nH]c2cc(C(F)(F)F)c([N+](=O)[O-])cc2c1Br [compound 277] | active |
| CC(C)(O)c1[nH]c2cc(C(F)(F)F)c(C#N)cc2c1I [compound 278] | active |
| CC(C)(O)c1[nH]c2cc(C(F)(F)F)c(Cl)cc2c1I [compound 279] | inactive |
| CC(C)(O)c1[nH]c2cc(C(F)(F)F)c(Cl)cc2c1Br [compound 280] | inactive |
| C=Cc1c(C(C)(C)O)[nH]c2cc(C(F)(F)F)c([N+](=O)[O-])cc12 [compound 281] | inactive |
| CC(C)(O)c1[nH]c2cc(C(F)(F)F)c(Cl)cc2c1Cl [compound 282] | inactive |
| CC(C)(O)c1cc2cc(Cl)c(C(F)(F)F)cc2n1S(C)(=O)=O [compound 284] | active |
| CC(C)(O)c1cc2cc(Cl)c(C(F)(F)F)cc2[nH]1 [compound 285] | inactive |
| CC(C)(O)c1[nH]c2cc(C(F)(F)F)c(C#N)cc2c1Cl [compound 287] | inactive |
| CC(C)(O)c1[nH]c2cc(C(F)(F)F)c(C#N)cc2c1Br [compound 288] | active |
| Cc1c(C(C)(C)O)[nH]c2cc(C(F)(F)F)c(C#N)cc12 [compound 289] | active |
| Cc1c(C(C)(C)O)[nH]c2cc(C(F)(F)F)c([N+](=O)[O-])cc12 [compound 290] | inactive |
| CC(C)(O)c1[nH]c2cc(C(F)(F)F)c([N+](=O)[O-])cc2c1C#N [compound 291] | active |
| CC(C)(O)c1cc2cc(Br)ccc2[nH]1 [compound 294] | inactive |
| CC(C)(O)c1[nH]c2cc(C(F)(F)F)c(C#N)cc2c1C#N [compound 295] | inactive |
| N#Cc1cc2cc(C(O)(C(F)(F)F)C(F)(F)F)[nH]c2cc1C(F)(F)F [compound 357] | active |
| CC(C)(O)c1cc2cc(Cl)c(Cl)cc2[nH]1 [compound 405] | inactive |

— patent publication US8394971B2, “Indole derivatives as selective androgen receptor modulators (SARMS)” (Janssen Pharmaceutica N.V., priority 2004, dated 2013)
